Assay [1] concerns the target human orexin-2 receptor (Homo sapiens (Human), UniProt O43614). In words: Human orexin 2 receptor radioligand binding ([3H]-EMPA competition). To be noted: HEK293 cells stably expressing human orexin-2 receptor; [3H]-EMPA 5 nM final; read-out: OR-2 Ki. As to the method: (§1) The in vitro affinity of the compounds for the human orexin-1 and orexin-2 receptors was determined by competitive radioligand binding using [^3H]SB SB674042 (1-(5-(2-fluoro-phenyl)-2-methyl-thiazol-4-yl)-1-((S)-2-(5-phenyl-(1,3,4)oxadiazol-2-ylmethyl)-pyrrolidin-1-yl)methanone) (Langmead et al., British Journal of Pharmacology 2004, 141:340-346.) and [^3H]EMPA (N-ethyl-2[(6-methoxy-pyridin-3-yl)-(toluene-2-sulfonyl)-amino]-N-pyridin-3-ylmethyl acetamide) (Malherbe et al., British Journal of Pharmacology, 2009, 156(8), 1326-1341), respectively.
Human Orexin 2 Receptor Radioligand Binding Studies
HEK293 stably expressing human orexin-2 receptor (Genebank accession number NM_001526) were grown to confluency in DMEM/F12 (Gibco, Cat #11039), in DMEM, 10% FBS, 1× Pen/Strep, 1× NaPyruvate, 1×HEPES, 600 ug/ml G418 media on 150 cm^2 tissue culture plates, washed with 5 mM EDTA in PBS (HyClone Dulbecco's Phosphate Buffered Saline 1× with Calcium and Magnesium, Cat #SH30264.01, hereafter referred to simply as PBS) and scraped into 50 ml tubes. After centrifugation (2K xG, 10 min at 4° C.), the supernatant was aspirated and the pellets frozen and stored at −80° C. Cells were resuspended in PBS in the presence of 1 tablet of protease inhibitor cocktail (Roche, Cat. #11836145001) per 50 mL. […] Competition binding experiments in 96 well polypropylene plates were performed using [^3H]-EMPA (Moravek Corporation, specific activity=27 Ci/mmol), diluted to a […] concentration in PBS (5 nM final concentration). Compounds were solubilized in 100% DMSO (Acros Organics, Cat. #61042-1000) and tested over a range of 7 concentrations (from 0.1 nM to 10 μM). The final concentration of DMSO in the reactions is equal to or less than 0.1%. Total and nonspecific binding was determined in the absence and presence of 10 μM (N-[2-(3,4-dimethoxyphenyl)ethyl]-N-methylnaphthalene-1-carboxamide, CAS Registry #1089563-88-1). The total volume of each reaction is 200 μL (20 μL of diluted compounds, 80 μL of [^3H]-EMPA diluted in PBS and 100 μL of the cell suspension). Reactions were run for 60 min at room temperature and terminated by filtration through GF/C filter plates (PerkinElmer, Cat. #6005174) presoaked in 0.3% polyethylenimine using the cell harvester (Perkin Elmer Filtermate). The plates were washed 3 times by aspirating 30 ml PBS through the plates. Plates were dried in 55° C. oven for 60 min, scintillation fluid was added, and the radioactivity was counted on a Topcount (Packard).

Assay [2] concerns the target human orexin 1 receptor (Homo sapiens (Human), UniProt O43613). In words: Human orexin 1 receptor radioligand binding ([3H]-SB674042 competition). To be noted: CHO cells stably expressing human orexin 1 receptor; [3H]-SB674042 4 nM final; read-out: OR-1 Ki. The procedure: as §1
Human Orexin 1 Receptor Radioligand Binding Studies
Chinese ovary cells (CHO) stably expressing human orexin 1 receptor (Genebank accession number NM_001526) were grown to confluency in DMEM/F12 (Gibco, Cat #11039), 10% FBS, 1× Pen/Strep, 600 μg/mL G418 media on 150 cm^2 tissue culture plates, washed with 5 mM EDTA in PBS (HyClone Dulbecco's Phoshpate Buffered Saline 1× with Calcium and Magnesium, Cat #SH30264.01, hereafter referred to simply as PBS) and scraped into 50 ml tubes. After centrifugation (2K xG, 10 min at 4° C.), the supernatant was aspirated and the pellets frozen and stored at −80° C. Cells were resuspended in PBS in the presence of 1 tablet of protease inhibitor cocktail (Roche, Cat. #11836145001) per 50 mL. […] Compounds were solubilized in 100% DMSO (Acros Organics, Cat. #61042-1000) and tested over a range of 7 concentrations (from 0.1 nM to 10 μM). The final concentration of DMSO in the reactions is equal to or less than 0.1%. Total and nonspecific binding was determined in the absence and presence of 10 μM (1-(6,8-difluoro-2-methylquinolin-4-yl)-3-[4-(dimethylamino)phenyl]urea, CAS Registry #288150-92-5). The total volume of each reaction is 200 μL (20 μL of diluted compounds, 80 μL of [^3H]-SB674042 diluted in PBS and 100 μL of the cell suspension). Reactions were run for 60 min at room temperature and terminated by filtration through GF/C filter plates (PerkinElmer, Cat. #6005174) presoaked in 0.3% polyethylenimine using the cell harvester (PerkinElmer Filtermate). The plates were washed 3 times by aspirating 30 ml PBS through the plates. Plates were dried in 55° C. oven for 60 min, scintillation fluid was added, and the radioactivity was counted on a Topcount (Packard).

pKi: −log10 of the molar value. A value given as a limit tells only on which side of the number the result lay.

The term pKi denotes the negative decadic logarithm of the Ki, by convention in mol/L.

Chain of human orexin-2 receptor (O43614 whole entry): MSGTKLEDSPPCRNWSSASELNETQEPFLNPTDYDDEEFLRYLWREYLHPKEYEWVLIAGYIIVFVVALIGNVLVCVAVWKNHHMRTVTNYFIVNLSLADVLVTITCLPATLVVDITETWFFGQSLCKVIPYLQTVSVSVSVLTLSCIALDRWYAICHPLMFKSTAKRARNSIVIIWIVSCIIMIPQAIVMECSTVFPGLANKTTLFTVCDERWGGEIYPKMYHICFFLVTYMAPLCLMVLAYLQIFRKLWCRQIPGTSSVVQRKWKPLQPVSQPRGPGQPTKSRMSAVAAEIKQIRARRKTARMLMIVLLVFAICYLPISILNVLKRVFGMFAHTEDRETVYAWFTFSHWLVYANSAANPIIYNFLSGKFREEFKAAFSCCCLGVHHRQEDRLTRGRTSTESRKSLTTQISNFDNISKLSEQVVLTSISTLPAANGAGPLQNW
Chain of human orexin 1 receptor (O43613 whole entry): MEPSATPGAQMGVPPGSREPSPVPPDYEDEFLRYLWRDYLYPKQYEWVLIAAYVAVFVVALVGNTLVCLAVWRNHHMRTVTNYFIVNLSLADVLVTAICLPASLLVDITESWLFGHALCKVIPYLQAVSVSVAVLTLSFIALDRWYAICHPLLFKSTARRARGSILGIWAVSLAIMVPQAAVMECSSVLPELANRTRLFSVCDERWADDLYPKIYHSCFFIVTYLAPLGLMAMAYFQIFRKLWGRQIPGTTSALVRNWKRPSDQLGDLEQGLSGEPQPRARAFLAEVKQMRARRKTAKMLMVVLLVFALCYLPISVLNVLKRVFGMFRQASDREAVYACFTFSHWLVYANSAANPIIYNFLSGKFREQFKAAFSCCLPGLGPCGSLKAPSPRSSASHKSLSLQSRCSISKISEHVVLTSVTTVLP

For the molecule `O=C(c1ccccc1-c1ccccc1)N1CCC2CN(c3nc4ccccc4o3)C2C1` (centres unmarked) [Example 11, (8-Benzooxazol-2-yl-3,8-diaza-bicyclo[4.2.0]oct-3-yl)-biphenyl-2-yl-methanone], the values for the pKi in assay [1] and in assay [2] were 6.85 and 6.84, respectively.
As to `COc1cccc(OC)c1C(=O)N1CCC2CN(c3cnc4ccccc4n3)C2C1` (centres unmarked) [Example 12, (2,6-Dimethoxy-phenyl)-(8-quinoxalin-2-yl-3,8-diaza-bicyclo[4.2.0]oct-3-yl)-methanone], the pKi is 6.68 in assay [1] and 6.18 in assay [2].
With `O=C(c1ccccc1Br)N1CC[C@H]2CN(c3cnc4ccccc4n3)[C@H]2C1` [Example 13, (1R,6S)(2-Bromo-phenyl)-(8-quinoxalin-2-yl-3,8-diaza-bicyclo[4.2.0]oct-3-yl)-methanone], the values for the negative logarithm of the Ki (pKi) in assay [1] and in assay [2] were 6.84 and 7.11, respectively.
As to `O=C(c1ccccc1-c1cccnc1)N1CC[C@H]2CN(c3cnc4ccccc4n3)[C@H]2C1` [Example 14, (1R,6S)(2-Pyridin-3-yl-phenyl)-(8-quinoxalin-2-yl-3,8-diaza-bicyclo[4.2.0]oct-3-yl)-methanone], the pKi in assay [1] is 6.94; in assay [2], 7.02.
In the case of `COc1cccc(OC)c1C(=O)N1CCC2CN(c3nccc(-c4ccccc4)n3)C2C1` (centres unmarked) [Example 15, (2,6-Dimethoxy-phenyl)-[8-(4-phenyl-pyrimidin-2-yl)-3,8-diaza-bicyclo[4.2.0]oct-3-yl]-methanone], the pKi in assay [1] was 6.59; in assay [2], 6.63.
On to `COc1cccc(OC)c1C(=O)N1CCC2CN(c3nc4ccccc4o3)C2C1` (centres unmarked) [Example 16, (8-Benzooxazol-2-yl-3,8-diaza-bicyclo[4.2.0]oct-3-yl)-(2,6-dimethoxy-phenyl)-methanone], for which the pKi in assay [1] was 6.55; in assay [2], 6.34.
Regarding `Cc1cc(C)nc(N2C[C@H]3CCN(C(=O)c4ccccc4-c4ccccc4)C[C@H]32)n1` [Example 18, (1S,6R)Biphenyl-2-yl-[8-(4,6-dimethyl-pyrimidin-2-yl)-3,8-diaza-bicyclo[4.2.0]oct-3-yl]-methanone], the negative-log Ki (pKi) was 6.12 in assay [1] and 5.42 in assay [2].
Take `Cc1ccc(C)c(S(=O)(=O)N2CCC3CN(c4nccc(-c5ccccc5)n4)C3C2)c1` (centres unmarked) [Example 19, 3-(2,5-Dimethyl-benzenesulfonyl)-8-(4-phenyl-pyrimidin-2-yl)-3,8-diaza-bicyclo[4.2.0]octane]: the pKi in assay [1] was 5.97; in assay [2] it was 6.60.
On to `Cc1ccc(S(=O)(=O)N2CC[C@H]3CN(c4cnc5ccccc5n4)[C@H]3C2)c(C)c1` [Example 20, (1R,6S)2-[3-(2,4-Dimethyl-benzenesulfonyl)-3,8-diaza-bicyclo[4.2.0]oct-8-yl]-quinoxaline], for which the pKi is 5.68 in assay [1] and 6.42 in assay [2].
For `Cc1ccc(C)c(S(=O)(=O)N2CCC3CN(c4cnc5ccccc5n4)C3C2)c1` (centres unmarked) [Example 21, 2-[3-(2,5-Dimethyl-benzenesulfonyl)-3,8-diaza-bicyclo[4.2.0]oct-8-yl]-quinoxaline] the same measures were 5.42 and 5.92.
For the molecule `Cc1cc(C)nc(N2C[C@@H]3CCN(C(=O)c4c(F)cccc4-c4ncccn4)C[C@@H]32)n1` [Example 22, (1R,6S)[8-(4,6-Dimethyl-pyrimidin-2-yl)-3,8-diaza-bicyclo[4.2.0]oct-3-yl]-(2-fluoro-6-pyrimidin-2-yl-phenyl)-methanone], the pKi in assay [1] was 7.54; in assay [2], 6.33.
For `Cc1cc(C)nc(N2C[C@@H]3CCN(C(=O)c4cc(F)ccc4-c4ncccn4)C[C@@H]32)n1` [Example 23, (1R,6S)[8-(4,6-Dimethyl-pyrimidin-2-yl)-3,8-diaza-bicyclo[4.2.0]oct-3-yl]-(5-fluoro-2-pyrimidin-2-yl-phenyl)-methanone], the pKi in assay [1] is 7.70; in assay [2], 6.21.
With `Cc1ccc(-n2nccn2)c(C(=O)N2CC[C@H]3CN(c4nc(C)cc(C)n4)[C@H]3C2)c1` [Example 26, (1R,6S)-[8-(4,6-Dimethyl-pyrimidin-2-yl)-3,8-diaza-bicyclo[4.2.0]oct-3-yl]-(5-methyl-2-[1,2,3]triazol-2-yl-phenyl)-methanone], the pKi in assay [1] was 7.89; in assay [2], 7.28.
As for `Cc1ccc(-c2ncccn2)c(C(=O)N2CC[C@H]3CN(c4nc(C)cc(C)n4)[C@H]3C2)c1` [Example 27, (1R,6S)-[8-(4,6-Dimethyl-pyrimidin-2-yl)-3,8-diaza-bicyclo[4.2.0]oct-3-yl]-(5-methyl-2-pyrimidin-2-yl-phenyl)-methanone], the figures for the pKi in assay [1] and in assay [2] were 7.55 and 6.84, respectively.
In the case of `Cc1cc(C)nc(N2C[C@@H]3CCN(C(=O)c4ccccc4-c4ncccn4)C[C@@H]32)n1` [Example 28, (1R,6S)-[8-(4,6-Dimethyl-pyrimidin-2-yl)-3,8-diaza-bicyclo[4.2.0]oct-3-yl]-(2-pyrimidin-2-yl-phenyl)-methanone], the figures for the pKi in assay [1] and in assay [2] were 7.68 and 6.48, respectively.
Take `Cc1cc(C)nc(N2C[C@@H]3CCN(C(=O)c4c(F)cccc4-n4nccn4)C[C@@H]32)n1` [Example 29, (1R,6S)-[8-(4,6-Dimethyl-pyrimidin-2-yl)-3,8-diaza-bicyclo[4.2.0]oct-3-yl]-(2-fluoro-6-[1,2,3]triazol-2-yl-phenyl)-methanone]: the pKi in assay [1] is 7.96; in assay [2], 6.49.
Turning to `Cc1cc(C)nc(N2C[C@@H]3CCN(C(=O)c4ccc(F)cc4-n4nccn4)C[C@@H]32)n1` [Example 30, (1R,6S)-[8-(4,6-Dimethyl-pyrimidin-2-yl)-3,8-diaza-bicyclo[4.2.0]oct-3-yl]-(4-fluoro-2-[1,2,3]triazol-2-yl-phenyl)-methanone], the pKi is 7.89 in assay [1] and 6.01 in assay [2].
With `Cc1cnc(C)c(N2C[C@@H]3CCN(C(=O)c4ccc(F)cc4-n4nccn4)C[C@@H]32)n1` [Example 31, (1R,6S)-[8-(3,6-Dimethyl-pyrazin-2-yl)-3,8-diaza-bicyclo[4.2.0]oct-3-yl]-(4-fluoro-2-[1,2,3]triazol-2-yl-phenyl)-methanone], the figures for the pKi in assay [1] and in assay [2] were 7.09 and no more than 5.00, respectively.
As to `Cc1cc(N2C[C@@H]3CCN(C(=O)c4c(F)cccc4-n4nccn4)C[C@@H]32)nc(C(F)(F)F)n1` [Example 32, (1R,6S)-(2-Fluoro-6-[1,2,3]triazol-2-yl-phenyl)-[8-(6-methyl-2-trifluoromethyl-pyrimidin-4-yl)-3,8-diaza-bicyclo[4.2.0]oct-3-yl]-methanone], the pKi in assay [1] is 7.89; in assay [2], 6.87.

The record behind these values is US8680275B2, “Fused heterocyclic compounds as orexin receptor modulators” (Janssen Pharmaceutica NV, priority 2009, dated 2014).
